Test results from US20060171988A1, “Method of treatment using foams as artificial lymph nodes” (priority 2005, published 2006).
“Also recorded” adds a separate entry of the source.

What was measured:
[1] = test system: EL-4 cells; test: 51Cr release assay (CTL activity) with T cells from immunized mice, EL-4 targets; assay type: in vivo, mouse
Description: Immunization: On day 9 after surgery, wounds had generally healed and healthy mice were used for immunization with 30 μg peptide per mouse. Depending on the experiment, CpG deoxyoligonucleotide 1668 (5 -100 pmole/mouse), mouse GM-CSF (10^3 units/mouse) and Titermax classic were used as adjuvants. Generally, injection volume was adjusted to 200 μl per mouse with sterile PBS. When applying Titermax classic, all other injection components were mixed and then added in small portions to an equal volume of Titermax classic. After each addition, the vial was rigorously mixed to obtain a white, semi-fluid water-in-oil suspension. […]
T-cell culture and ^51Cr release assay: On day 9 after immunization, mice were sacrificed and 2*10^7 splenocytes were stimulated in vitro for 5 days using 10^7 irradiated (30 Gy) splenocytes from untreated C57BL/6 mice as feeder cells and 5 ng/ml peptide. Cytotoxic T lymphocyte (CTL) activity was measured in a standard ^51Cr release assay (Brunner et al., 1968). Briefly, stimulated cells were harvested, counted and plated out in a series of […] in a round-bottom 96-well plate. […] After intense washing with cell culture medium, 10^4 of these cells were added to each well of the 96-well plate as targets. ^51Cr release was measured after 4 h incubation at 37° C./5% (v/v) CO2.

[2] = test system: ovalbumin-transfected E.G7 mouse tumor cells; test: 51Cr release assay (CTL activity) with T cells from immunized mice, E.G7 targets; assay type: in vivo
Description: Immunization: On day 9 after surgery, wounds had generally healed and healthy mice were used for immunization with 30 μg peptide per mouse. Depending on the experiment, CpG deoxyoligonucleotide 1668 (5 -100 pmole/mouse), mouse GM-CSF (10^3 units/mouse) and Titermax classic were used as adjuvants. Generally, injection volume was adjusted to 200 μl per mouse with sterile PBS. When applying Titermax classic, all other injection components were mixed and then added in small portions to an equal volume of Titermax classic. After each addition, the vial was rigorously mixed to obtain a white, semi-fluid water-in-oil suspension. Injection was either performed subcutaneously into the nape of the neck, the base of tail and the footpad, using a volume ratio of 3:1:1, respectively, or directly into the centre of the right foam implantate.
T-cell culture and ^51Cr release assay: On day 9 after immunization, mice were sacrificed and 2*10^7 splenocytes were stimulated in vitro for 5 days using 10^7 irradiated (30 Gy) splenocytes from untreated C57BL/6 mice as feeder cells and 5 ng/ml peptide. Cytotoxic T lymphocyte (CTL) activity was measured in a standard ^51Cr release assay (Brunner et al., 1968). Briefly, stimulated cells were harvested, counted and plated out in a series of […] in a round-bottom 96-well plate. 10^6 EL-4 cells (C57BL/6-derived T cell lymphoma; ATCC no. TIB-39) were loaded with 50 pmole peptide and [^51Cr] Na2CrO4-labeled at 37° C. for 30 min. After intense washing with cell culture medium, 10^4 of these cells were added to each well of the 96-well plate as targets. ^51Cr release was measured after 4 h incubation at 37° C./5% (v/v) CO2.

[3] = s.c. injection into the nape of the neck, peptide alone, T cells from spleen or lymph nodes of immunized C57BL/6 mice

Row | Sequence | maximum lysis above unspecific background ([1]; peptide injected into s.c. implanted PVA foams, T cells from axillary and cervical lymph nodes, independent second experiment) [%] | recognition of untransfected EL-4 target cells by T cells [1, 3] | maximum lysis above unspecific background ([2]; peptide injected into s.c. implanted PVA foams, T cells from spleen) | lysis of ovalbumin-transfected E.G7 cells by T cells ([2]; peptide injected into s.c. implanted PVA foams, T cells from spleen or lymph node) | immune response / recognition of E.G7 target cells by T cells [2, 3]
1 | ASNENMETM (peptide ASNENMETM derived from influenza nucleoprotein (amino acid 366-374)) [peptide derived from influenza nucleoprotein (amino acid 366-374)] | 37 | – | – | – | –
2 | SIINFEKL (Ovalbumin-derived SIINFEKL peptide (amino acid 257-264)) [peptide derived from chicken ovalbumin (amino acid 257-264), model ligand of mouse MHC class I allele H2-Kb] | – | nor untransfected H2-b positive EL-4 mouse tumor cells were recognized | approximately 45% | able to lyse | Neither ovalbumin-transfected E.G7 mouse tumor cells of the H2-b haplotype, nor untransfected H2-b positive EL-4 mouse tumor cells are recognized; also recorded: did not lead to detectable immune responses
